Measured values as given in patent US20090042726A1, “Novel Herbicides” (SYNGENTA LIMITED, priority 2005, published 2009).

Tested on: Monocotyledonous and dicotyledonous test plants
Experiment: Herbicidal action, application pre-emergence (Example B1)
Assay type: in vivo
Set-up: key: 10=total damage to plant; 0=no damage to plant
Settings: 1000 g/ha, evaluated after 9 or 13 days; for AGSTE herbicidal action (damage score 0-10): Agrostis-tenius; for AMARE herbicidal action (damage score 0-10): Amaranthus retroflexus; for DIGSA herbicidal action (damage score 0-10): Digitaria sanguinalis; for POATR herbicidal action (damage score 0-10): Poa trivialis; for SETIT herbicidal action (damage score 0-10): Setaria italica
Description: Monocotyledonous and dicotyledonous test plants were sown in sterilised standard soil in seed trays each having 96 cells. After one day (pre-emergence) under controlled conditions in a climatic chamber (cultivation at 23/17° C., day/night; 13 hours light; 50-60% humidity; after application at 24/19° C., day/night), the plants were treated with an aqueous spray solution of 1000 mg/l of the active ingredient used (including 10% DMSO as solvent). The plants were grown on in the climatic chamber until the test was evaluated (10=total damage to plant, 0=no damage to plant) after 9 or 13 days.

| Compound | AGSTE herbicidal action (damage score 0-10) | AMARE herbicidal action (damage score 0-10) | DIGSA herbicidal action (damage score 0-10) | POATR herbicidal action (damage score 0-10) | SETIT herbicidal action (damage score 0-10) |
| --- | --- | --- | --- | --- | --- |
| Cn1cc(C(F)(F)F)c(CSC2=NOC(C)(C)C2F)n1 (stereo not drawn) [4.01, 3-(4-fluoro-5,5-dimethyl-4,5-dihydro-isoxazol-3-ylsulfanyl-methyl)-1-methyl-4-trifluoromethyl-1H-pyrazole] | 0 | 8 | 9 | 0 | 9 |
| Cn1cc(C(F)(F)F)c(CS(=O)(=O)C2=NOC(C)(C)C2F)n1 (stereo not drawn) [4.03, 3-(4-fluoro-5,5-dimethyl-4,5-dihydro-isoxazol-3-ylsulfonylmethyl)-1-methyl-4-trifluoromethyl-1H-pyrazole] | 10 | 8 | 10 | 10 | 7 |
| CC(c1nn(C)cc1C(F)(F)F)S(=O)(=O)C1=NOC(C)(C)C1F (stereo not drawn) [4.04, 3-(1-(4-fluoro-5,5-dimethyl-4,5-dihydro-isoxazol-3-ylsulfonyl)-eth-1 yl)-1-methyl-4-trifluoromethyl-1H-pyrazole] | 10 | 9 | 9 | 8 | 9 |
| Cn1nc(CS(=O)(=O)C2=NOC(C)(C)C2F)c(C(F)(F)F)c1C#N (stereo not drawn) [4.09] | 10 | 9 | 7 | 4 | – |
| COc1ncc(C[S+]([O-])C2=NOC(C)(C)C2F)c(C(F)(F)F)n1 (stereo not drawn) [5.02] | 10 | 10 | 10 | 10 | – |
| COc1ncc(CS(=O)(=O)C2=NOC(C)(C)C2F)c(C(F)(F)F)n1 (stereo not drawn) [5.03] | 10 | 10 | 8 | 10 | – |
| Cn1nc(C(F)(F)F)cc1CS(=O)(=O)C1=NOC(C)(C)C1F (stereo not drawn) [6.04] | 10 | 9 | 9 | 10 | – |
| Cn1nc(C(F)(F)F)c(Cl)c1CS(=O)(=O)C1=NOC(C)(C)C1F (stereo not drawn) [6.07] | 10 | 7 | 9 | 10 | – |
| Cn1nc(OC(F)F)cc1CS(=O)(=O)C1=NOC(C)(C)C1F (stereo not drawn) [6.10] | 10 | 7 | 0 | 9 | – |
| COc1cc(CS(=O)(=O)C2=NOC(C)(C)C2F)n(C)n1 (stereo not drawn) [6.13] | 10 | 10 | 9 | 10 | – |
| Cc1nn(C)nc1CS(=O)(=O)C1=NOC(C)(C)C1F (stereo not drawn) [7.04] | 10 | 10 | 10 | 10 | 9 |
| C=CCn1nc(CS(=O)(=O)C2=NOC(C)(C)C2F)c(C(F)(F)F)n1 (stereo not drawn) [7.10] | 10 | 10 | 10 | 10 | – |
| CC1(C)ON=C(S(=O)(=O)Cc2nn(C3CCCC3)nc2C(F)(F)F)C1F (stereo not drawn) [7.14] | 10 | 8 | 9 | 8 | – |
| COCCn1nc(CS(=O)(=O)C2=NOC(C)(C)C2F)c(C(F)(F)F)n1 (stereo not drawn) [7.20] | 10 | 10 | 10 | 10 | – |
| Cn1ncc(CS(=O)(=O)C2=NOC(C)(C)C2F)n1 (stereo not drawn) [7.23] | 10 | 5 | 9 | 9 | – |
| CC(C)n1nc(CS(=O)(=O)C2=NOC(C)(C)C2F)c(C(F)(F)F)n1 (stereo not drawn) [7.27] | 9 | 1 | 10 | 0 | – |

| Compound | AGSTE herbicidal action (damage score 0-10) | AMARE herbicidal action (damage score 0-10) | DIGSA herbicidal action (damage score 0-10) | POATR herbicidal action (damage score 0-10) | SETIT herbicidal action (damage score 0-10) |
| --- | --- | --- | --- | --- | --- |
| CCc1nn(C)nc1CS(=O)(=O)C1=NOC(C)(C)C1F (stereo not drawn) [7.33] | 10 | 10 | 10 | 10 | – |
| CCn1ncc(CS(=O)(=O)C2=NOC(C)(C)C2F)n1 (stereo not drawn) [7.36] | 9 | 8 | 9 | 10 | – |
| Cc1nn(C(C)C)nc1CS(=O)(=O)C1=NOC(C)(C)C1F (stereo not drawn) [7.39] | 10 | 8 | 9 | 8 | – |
| Cn1nc(C[S+]([O-])C2=NOC(C)(C)C2F)c(C(F)(F)F)n1 (stereo not drawn) [7.43] | 10 | 10 | 10 | 10 | – |
| Cn1nnc(Br)c1CS(=O)(=O)C1=NOC(C)(C)C1F (stereo not drawn) [11.03] | 10 | 3 | 9 | 10 | – |
| CC1(C)ON=C(S(=O)(=O)C(F)(F)c2ccccc2OC(F)(F)F)C1F (stereo not drawn) [Compound No. 1.12] | 10 | 9 | 9 | 0 | 8 |
| CC1(C)ON=C(S(=O)(=O)C(Cl)c2ccccc2OC(F)(F)F)C1F (stereo not drawn) [Compound No. 1.13, 3-[chloro-(2-trifluoromethoxy-phenyl)-methanesulfonyl]-4-fluoro-5,5-dimethyl-4,5-dihydro-isoxazole] | 10 | 9 | 9 | 10 | 9 |
| Cn1nc(C(F)(F)F)c(C[S+]([O-])C2=NOC(C)(C)C2Br)c1OC(F)F (stereo not drawn) [Compound No. 2.05, 4-bromo-3-(5-difluoromethoxy-1-methyl-3-trifluoromethyl-1H-pyrazol-4-ylmethylsulfinyl)-5,5-dimethyl-4,5-dihydro-isoxazole] | 9 | 2 | 8 | 0 | 9 |
| Cn1nc(C(F)(F)F)c(CS(=O)(=O)C2=NOC(C)(C)C2Br)c1OC(F)F (stereo not drawn) [Compound No. 2.06, 4-Bromo-3-(5-difluoromethoxy-1-methyl-3-trifluoromethyl-1H-pyrazol-4-ylmethylsulfonyl)-5,5-dimethyl-4,5-dihydro-isoxazole] | 10 | 7 | 8 | 9 | 7 |
| Cn1nc(C(F)(F)F)c(C[S+]([O-])C2=NOC(C)(C)C2Cl)c1OCC(F)(F)F (stereo not drawn) [Compound No. 2.14, 4-Chloro-5,5-dimethyl-3-[1-methyl-5-(2,2,2-trifluoro-ethoxy)-3-trifluoromethyl-1H-pyrazol-4-ylmethylsulfinyl]-4,5-dihydro-isoxazole] | 10 | 9 | 9 | 10 | 9 |
| Cn1nc(C(F)(F)F)c(CSC2=NOC(C)(C)C2F)c1OC(F)F (stereo not drawn) [Compound No. 2.22] | 10 | 9 | 9 | 9 | 9 |
| Cn1nc(C(F)(F)F)c(CSC2=NOC(C)(C)C2F)c1F (stereo not drawn) [Compound No. 2.54] | 10 | 9 | 6 | 10 | – |
| CC1(C)ON=C(SCc2cccnc2Cl)C1F (stereo not drawn) [Compound No. 3.04] | 8 | 2 | 8 | 7 | – |
| Cn1nc(C(F)(F)F)cc1CSC1=NOC(C)(C)C1F (stereo not drawn) [Compound No. 6.01] | 9 | 0 | 8 | 0 | – |
| Cn1nc(C(F)(F)F)c(Cl)c1CSC1=NOC(C)(C)C1F (stereo not drawn) [Compound No. 6.05] | 10 | 0 | 5 | 4 | – |
| Cn1nc(OC(F)F)cc1CSC1=NOC(C)(C)C1F (stereo not drawn) [Compound No. 6.08] | 9 | 3 | 8 | 9 | – |
